Data taken from patent US6620397B2, “Material and method for treating photographic effluents” (Eastman Kodak Company, priority 2001, dated 2003).

Assay: Oxidation of cyclohexene to cyclohexanol followed by FT Raman spectroscopy
Description: When no imogolite was present in the test the volume of imogolite was replaced by an equivalent volume of water so as to retain a constant volume. The oxidation of the cyclohexene was followed by FT (Fourier transform) Raman spectroscopy by measuring the percentage of cyclohexene converted to cyclohexanol after 48 hours. The tests were carried out at ambient temperature.

## OO [Example 13, hydrogen peroxide]
5 g material, 20 ml cyclohexene in 80 ml methanol, ambient temperature, 48 hours
  Cyclohexene oxidized after 48 h (%): 3%
Summary of Table I
  Oxidizing property towards cyclohexene (in words): weak oxidizing agent
